Experimental data as given in patent US12162839B1, “4,5-bis(4-bromophenyl)-2-(4-bromophenyl)-1-hexyl-1H-imidazole as an antimicrobial compound” (KING FAISAL UNIVERSITY, priority 2023, dated 2024).

Key:
Format in all cases: cell-based
Settings in all cases: after 10, 20, 40 and 60 minutes at all dilutions 1:100, 1:200, 1:400, 1:800
Staphylococcus aureus = experiment: Antimicrobial testing by agar dilution, Staphylococcus aureus
Protocol: (§1) The antimicrobial properties of the 4,5-bis(4-bromophenyl)-2-(4-bromophenyl)-1-hexyl-1H-imidazole (5) were studied by the method of agar dilution. Test solutions of each compound were prepared in concentration of 1% using dimethylformamide as a solvent then they are diluted in physiological solution to obtain the final experimental dilutions 1:100, 1:200, 1:400, 1:800. The effect of these substances were compared with furacillin in a controllable study. The testing microbes used were gram positive bacteria Staphylococcus aureus, gram negative bacteria Escherichia coli, Pseudomonas aeruginosa and Candida albicans fungi were taken. The experiments used for this survey were meat-pentonlu agar (EPA) for cultivation of bacteria and Saburo environment for fungi. Each experiment used 1 ml of test solution on each plate 500 min. Add 2 drops of emulsified with microbes feel. All experimental samples were taken from the agar after 10, 20, 40, 60 minutes in the environment on the basis of Patrk planted. Bacteria were cultivated at a temperature of 37° C. for 1 day and the mushroom was kept in a thermostat for […] at a temperature of 28° C. in the. Then results were checked.

Escherichia coli = experiment: Antimicrobial testing by agar dilution, Escherichia coli
Protocol: as §1

Pseudomonas aeruginosa = experiment: Antimicrobial testing by agar dilution, Pseudomonas aeruginosa
Protocol: as §1

Candida albicans = experiment: Antimicrobial testing by agar dilution, Candida albicans
Protocol: as §1

Measured: inhibition activity (in words)

CCCCCCn1c(-c2ccc(Br)cc2)nc(-c2ccc(Br)cc2)c1-c1ccc(Br)cc1 [4,5-bis(4-bromophenyl)-2-(4-bromophenyl)-1-hexyl-1H-imidazole]
highest inhibition activity: all assays above
